Measurements: US20250084084A1, “Crystalline form of (2R)-2-(5-fluoro-2-methoxypyridin-4-yl)-1-[(2S)-7-methyl-6-(pyrimidin-2-yl)-3,4-dihydro-1H-spiro[1,8-naphthyridine-2,3-pyrrolidin]-1-yl]propan-1-one” (Pfizer Inc., priority 2020, published 2025)

The compounds below were run against α-melanocyte-stimulating hormone receptor (hMC4R) (Homo sapiens (Human), UniProt P32245) (assay: In vitro binding affinity assay using hMC4R (radioligand competition binding, [125I]-(Nle4, D-Phe7)-α-MSH)). Conditions: geometric mean, read-out: Ki (nM) geometric.
Method: The binding affinity of test compounds at the α-melanocyte-stimulating hormone receptor (hMC4R) was assessed using a radioligand competition binding assay. Recombinant Chinese hamster ovaries (CHO) cells stably expressing hMC4R (PerkinElmer #ES-191-C) were used for competitive binding. hMC4R membranes were grown in Dulbecco's Modified Essential Medium and Ham's F-12 Medium (DMEM/F12), 10% heat inactivated fetal bovine serum (FBS), 0.4 mg/mL Geneticin and 2 mM L-glutamine. Cell membranes were bulked and frozen until the assay was performed.
Compounds were solubilized in 100% dimethyl sulfoxide (DMSO) to a concentration of 30 mM. A 10-point intermediate dilution series using half log dilutions was created in 100% DMSO with a top concentration of 0.03 mM. The serially diluted compounds were spotted as 1 μL/well, in 96-well Costar 3363 plates. The final compound range in the assay was 300 nM to 0.01 nM with a final DMSO concentration of 1%. Control wells, containing 1 μL of 2 mM ([…]) alpha-melanocyte stimulating hormone (α-MSH-Tocris #2584) was added to the non-specific binding wells and 1 μL 100% DMSO for the total binding control wells. […] The exact concentration of radioligand used for each experiment was determined by liquid scintillation counting and adjusted if necessary.
Frozen hMC4R cell membranes were thawed and Dounce homogenized. Homogenates were resuspended in assay buffer to a concentration of 2 μg per well. […] The plates were incubated for 2 hours at room temperature. Assay samples were then rapidly filtered through Unifilter-96 GF/B PEI coated filter plates using a filter plate harvester (PerkinElmer) and rinsed with ice-cold wash buffer [25 mM (4-(2-hydroxyethyl)-1-piperazineethanesulfonic acid (HEPES), 1 mM MgCl2, 2.5 mM CaCl2, and 500 mM NaCl]. Filter plates were dried overnight at room temperature. Plates were then bottom-sealed prior to the addition of 50 μL/well Ultima Gold XR scintillation fluid (PerkinElmer 6013111). Plates were then top-sealed, incubated for 60 minutes at room temperature and then the amount of radioactivity present was determined by liquid scintillation counting on a Microbeta Trilux (PerkinElmer #2450-0060).
The raw data (expressed as counts per minute) were analyzed using ActivityBase (IDBS Data Management Software). […] Equilibrium dissociation constant for inhibitor of ligand and receptor interaction (Ki) values were then calculated from the IC50 values using the Cheng-Prusoff equation: Ki=IC50/(1+([L]/Kd)), where [L] is the concentration of the radioligand used in the experiment and Kd is the affinity of the radioligand (determined in separate saturation experiments).

α-melanocyte-stimulating hormone receptor (hMC4R), sequence (P32245 whole entry): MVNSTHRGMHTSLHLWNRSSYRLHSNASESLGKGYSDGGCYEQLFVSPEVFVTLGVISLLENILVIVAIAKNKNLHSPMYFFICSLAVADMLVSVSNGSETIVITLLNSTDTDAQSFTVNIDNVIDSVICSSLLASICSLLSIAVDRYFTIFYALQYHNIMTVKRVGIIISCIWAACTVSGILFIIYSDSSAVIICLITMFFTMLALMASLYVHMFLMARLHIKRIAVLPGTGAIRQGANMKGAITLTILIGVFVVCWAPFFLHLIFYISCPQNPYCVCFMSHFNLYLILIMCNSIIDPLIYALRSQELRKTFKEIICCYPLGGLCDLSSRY

SMILES	Ki [nM]
COc1cc([C@@H](C)C(=O)N2CC[C@@]3(CCc4cc(-c5cnn(C)n5)c(C)nc4N3)C2)c(Cl)cn1 [Example 119, (2R)-2-(5-chloro-2-methoxypyridin-4-yl)-1-[(2S)-7-methyl-6-(2-methyl-2H-1,2,3-triazol-4-yl)-3,4-dihydro-1H-spiro[1,8-naphthyridine-2,3′-pyrrolidin]-1′-yl]propan-1-one]	> 17
COc1cc([C@@H](C)C(=O)N2CC[C@@]3(CCc4cc(-c5cnn(C)n5)c(C)nc4N3)C2)c(F)cn1 [Example 118, (2R)-2-(5-fluoro-2-methoxypyridin-4-yl)-1-[(2S)-7-methyl-6-(2-methyl-2H-1,2,3-triazol-4-yl)-3,4-dihydro-1H-spiro[1,8-naphthyridine-2,3′-pyrrolidin]-1′-yl]propan-1-one]	0.83
COc1cc([C@@H](C)C(=O)N2CC[C@@]3(CCc4cc(-c5nc(OC)n(C)n5)c(C)nc4N3)C2)c(F)cn1 (single isomer, unassigned) [Example 112]	0.78

Further lines, results first:

Ki [nM]	SMILES
12	COc1cc(C(C)(F)C(=O)N2CC[C@@]3(CCc4cc(-c5ncccn5)c(C)nc4N3)C2)c(F)cn1 (single isomer, unassigned) [Example 148]
5.8	COc1cc([C@@H](C)C(=O)N2CC[C@@]3(CCc4cc(C5CCOCC5)c(C)nc4N3)C2)c(F)cn1 [Example 131, (2R)-2-(5-fluoro-2-methoxypyridin-4-yl)-1-[(2S)-7-methyl-6-(oxan-4-yl)-3,4-dihydro-1H-spiro[1,8-naphthyridine-2,3′-pyrrolidin]-1′-yl]propan-1-one]
1.2	COc1cc([C@@H](C)C(=O)N2CC[C@@]3(CCc4cc(-c5ncc(F)cn5)c(C)nc4N3)C2)c(F)cn1 [Example 146, (2R)-2-(5-fluoro-2-methoxypyridin-4-yl)-1-[(2S)-6-(5-fluoropyrimidin-2-yl)-7-methyl-3,4-dihydro-1H-spiro[1,8-naphthyridine-2,3′-pyrrolidin]-1′-yl]propan-1-one]
21	COc1cc([C@@H](C)C(=O)N2CC[C@@]3(CCc4cc(-c5ccc(C(F)F)cn5)c(C)nc4N3)C2)c(F)cn1 [Example 179, (2R)-1-{(2S)-6-[5-(difluoromethyl)pyridin-2-yl]-7-methyl-3,4-dihydro-1H-spiro[1,8-naphthyridine-2,3′-pyrrolidin]-1′-yl}-2-(5-fluoro-2-methoxypyridin-4-yl)propan-1-one]
5.5	COc1cc([C@@H](C)C(=O)N2CC[C@@]3(CCc4cc(-c5nc(N6CCOCC6)n(C)n5)c(C)nc4N3)C2)c(F)cn1 [Example 187, (2R)-2-(5-fluoro-2-methoxypyridin-4-yl)-1-{(2S)-7-methyl-6-[1-methyl-5-(morpholin-4-yl)-1H-1,2,4-triazol-3-yl]-3,4-dihydro-1H-spiro[1,8-naphthyridine-2,3′-pyrrolidin]-1′-yl}propan-1-one]
220	COc1ncc(F)c([C@@H](C)C(=O)N2CC[C@@]3(CCc4cc(-c5nnn(C)n5)c(C)nc4N3)C2)n1 (single isomer, unassigned) [Example 134]
5.4	COc1cc([C@@H](C)C(=O)N2CC[C@@]3(CCc4cc(-c5nccs5)c(C)nc4N3)C2)c(F)cn1 [Example 167, (2R)-2-(5-fluoro-2-methoxypyridin-4-yl)-1-[(2S)-7-methyl-6-(1,3-thiazol-2-yl)-3,4-dihydro-1H-spiro[1,8-naphthyridine-2,3′-pyrrolidin]-1′-yl]propan-1-one]
8.1	COc1cc([C@@H](C)C(=O)N2CC[C@@]3(CCc4cc(-c5ccnc(N6CCOCC6)n5)c(C)nc4N3)C2)c(F)cn1 [Example 196, (2R)-2-(5-fluoro-2-methoxypyridin-4-yl)-1-{(2S)-7-methyl-6-[2-(morpholin-4-yl)pyrimidin-4-yl]-3,4-dihydro-1H-spiro[1,8-naphthyridine-2,3′-pyrrolidin]-1′-yl}propan-1-one]
26	COc1cc([C@@H](C)C(=O)N2CC[C@@]3(CCc4cc(-c5ccc(C(F)F)nc5)c(C)nc4N3)C2)c(F)cn1 [Example 174, (2R)-1-{(2S)-6-[6-(difluoromethyl)pyridin-3-yl)-7-methyl-3,4-dihydro-1H-spiro[1,8-naphthyridine-2,3′-pyrrolidin]-1′-yl}-2-(5-fluoro-2-methoxypyridin-4-yl)propan-1-one]
0.22	COc1cc([C@@H](C)C(=O)N2CC[C@@]3(CCc4cc(-c5nc(C(F)F)n(C)n5)c(C)nc4N3)C2)nc(C)n1 (single isomer, unassigned) [Example 123]
2.8	COc1cc([C@@H](C)C(=O)N2CC[C@@]3(CCc4cc(-c5nc(C)c(C)s5)c(C)nc4N3)C2)c(F)cn1 [Example 163, (2R)-1-[(2S)-6-(4,5-dimethyl-1,3-thiazol-2-yl)-7-methyl-3,4-dihydro-1H-spiro[1,8-naphthyridine-2,3′-pyrrolidin]-1′-yl]-2-(5-fluoro-2-methoxypyridin-4-yl)propan-1-one]
92	Cc1nc2c(cc1-c1ncccn1)CC[C@@]1(CCN(C(=O)C(C)c3ccnc(OC(F)F)c3)C1)N2 (single isomer, unassigned) [Example 194]

Same assay, conditions: geometric mean, read-out: Ki (nM) geometric mean

Ki [nM]	SMILES
6.6	Cc1nc2c(cc1-c1ncccn1)CC[C@@]1(CCN(C(=O)[C@H](C)c3cc(N(C)C)ncc3F)C1)N2 (single isomer, unassigned) [Example 81]
0.67	COc1cc([C@@H](C)C(=O)N2CC[C@@]3(CCc4cc(-c5ncccn5)c(C)nc4N3)C2)cc(OC)n1 (single isomer, unassigned) [Example 83]
1.7	Cc1nc2c(cc1-c1cnn(C)c1)CC[C@@]1(CCN(C(=O)Cc3ccc(F)cc3)C1)N2 (stereo in doubt) [Example 89, 2-(4-fluorophenyl)-1-[7-methyl-6-(1-methyl-1H-pyrazol-4-yl)-3,4-dihydro-1H-spiro[1,8-naphthyridine-2,3′-pyrrolidin]-1′-yl]ethan-1-one]
5.1	COc1cc([C@@H](C)C(=O)N2CC[C@@]3(CCc4cc(-c5nc(C(F)(F)F)ccc5F)c(C)nc4N3)C2)c(F)cn1 [Example 69, (2R)-2-(5-fluoro-2-methoxypyridin-4-yl)-1-{(2S)-6-[3-fluoro-6-(trifluoromethyl)pyridin-2-yl]-7-methyl-3,4-dihydro-1H-spiro[1,8-naphthyridine-2,3′-pyrrolidin]-1′-yl}propan-1-one]
48	Cc1ccc2c(n1)N[C@@]1(CC2)CCN(C(=O)Cc2ccc(F)cc2)C1 (single isomer, unassigned) [Example 87, 2-(4-fluorophenyl)-1-(7-methyl-3,4-dihydro-1H-spiro[1,8-naphthyridine-2,3′-pyrrolidin]-1′-yl)ethan-1-one]

SMILES	Ki [nM]
[2H]C([2H])([2H])Oc1cc([C@@H](C)C(=O)N2CC[C@@]3(CCc4cc(-c5ncccn5)c(C)nc4N3)C2)c(F)cn1 [Example 74, (2R)-2-{5-fluoro-2-[(^2H3)methyloxy]pyridin-4-yl}-1-[(2S)-7-methyl-6-(pyrimidin-2-yl)-3,4-dihydro-1H-spiro[1,8-naphthyridine-2,3′-pyrrolidin]-1′-yl]propan-1-one]	1.3
[2H]c1cc([2H])nc(-c2cc3c(nc2C)N[C@@]2(CC3)CCN(C(=O)[C@H](C)c3cc(OC)ncc3F)C2)n1 [Example 18, (2R)-2-(5-Fluoro-2-methoxypyridin-4-yl)-1-{(2S)-7-methyl-6-[(4,6-2H2)pyrimidin-2-yl]-3,4-dihydro-1H-spiro[1,8-naphthyridine-2,3′-pyrrolidin]-1′-yl}propan-1-one]	0.18
